Test results taken from patent US20250066339A1, “HETEROCYCLE-SUBSTITUTED AROMATIC COMPOUND, METHOD FOR PREPARING SAME, HERBICIDAL COMPOSITION, AND USE THEREOF” (QINGDAO KINGAGROOT CHEMICAL COMPOUND CO., LTD., priority 2022, published 2025).

What was measured:
Experiment in all cases: Post-emergence test on weeds
Type in all cases: in vivo
Parameters in all cases: key: Level 10: completely dead; Level 9: growth control rate greater than or equal to 90% and less than 100%; Level 8: growth control rate greater than or equal to 80% and less than 90%; Level 7: growth control rate greater than or equal to 70% and less than 80%; Level 6: growth control rate greater than or equal to 60% and less than 70%; Level 5: growth control rate greater than or equal to 50% and less than 60%; Level 4: growth control rate greater than or equal to 40% and less than 50%; Level 3: growth control rate greater than or equal to 30% and less than 40%; Level 2: growth control rate greater than or equal to 20% and less than 30%; Level 1: growth control rate less than 20%; Level 0: no effect
Conditions in all cases: 3 weeks after application, fresh weight control rate
Digitaria sanguinalis = system: Digitaria sanguinalis
Excerpt: (§1) The activity level criteria for plant damage (i.e., growth control rate) are as follows: • Level 10: completely dead; • Level 9: growth control rate greater than or equal to 90% and less than 100%; • Level 8: growth control rate greater than or equal to 80% and less than 90%; • Level 7: growth control rate greater than or equal to 70% and less than 80%; • Level 6: growth control rate greater than or equal to 60% and less than 70%; • Level 5: growth control rate greater than or equal to 50% and less than 60%; • Level 4: growth control rate greater than or equal to 40% and less than 50%; • Level 3: growth control rate greater than or equal to 30% and less than 40%; • Level 2: growth control rate greater than or equal to 20% and less than 30%; • Level 1: growth control rate less than 20%; • Level 0: no effect.
(§2) The above growth control rates are fresh weight control rates.
(§3) Monocotyledonous and dicotyledonous weed seeds (Descurainia sophia, Capsella bursa-pastoris, Abutilon theophrasti, Galium spurium, Stellaria media, Lithospermum arvense, Rorippa indica, Alopecurus aequalis, Alopecurus japonicus, Eleusine indica, Beckmannia syzigachne, Sclerochloa dura, Erigeron canadensis, Phleum paniculatum, Veronica polita, Bromus japonicus, Aegilops tauschii, Phalaris arundinacea, Amaranthus retroflexus, Chenopodium, Commelina communis, Cichorium endivia, Convolvulus arvensis, Cirsium arvense, Solanum nigrum, Acalypha australis, Digitaria sanguinalis, Echinochloa crus-galli, Setaria viridis, Setaria pumila, Leptochloa chinensis, Monochoria vaginalis, Sagittaria trifolia, Schoenoplectiella juncoides, Cyperus rotundus, Cyperus iria, Cyperus difformis, Fimbristylis, Portulaca oleracea, Xanthium sibiricum, Ipomoea nil, Eschenbachia japonica, etc.) and major crop seeds (wheat, maize, paddy rice, soybean, cotton, oilseed rape, millet, sorghum, potato, sesame, castor plant, etc.) were placed in plastic pots filled with soil and then covered with 0.5-2 cm of soil to allow them to grow in a favorable greenhouse environment. Two weeks after sowing, the test plants were treated at the stage of 2-3 leaves. The test compounds of the present invention were individually dissolved with acetone, then added with Tween® 80, with 1.5 L/ha of methyl oleate emulsifiable concentrate as a synergist, diluted into solutions of certain concentrations using certain amount of water, and sprayed to the plants using a spray tower. After drug application, the experimental results on weeds were collected after 3 weeks of cultivation in a greenhouse. The compounds were applied at 500, 250, 125, 60, 15, and 7.5 g a.i./ha in triplicate, and the results were averaged.

Veronica polita = system: Veronica polita
Excerpt: as §1, §2, §3

Abutilon theophrasti = system: Abutilon theophrasti
Excerpt: as §1, §2, §3

Amaranthus retroflexus = system: Amaranthus retroflexus
Excerpt: as §1, §2, §3

Setaria viridis = system: Setaria viridis
Excerpt: as §1, §2, §3

Echinochloa crus-galli = system: Echinochloa crus-galli
Excerpt: as §1, §2, §3

CC1(C(=O)OC2CCCC2)CC(c2cc(-c3ncc(C(F)(F)F)cc3Cl)c(F)cc2Cl)=NO1 (stereo not drawn) [Compound 43]
10: activity level (growth control rate) Digitaria sanguinalis (Digitaria sanguinalis; 15 g a.i./ha) | activity level (growth control rate) Veronica polita (Veronica polita; 15 g a.i./ha) | activity level (growth control rate) Abutilon theophrasti (Abutilon theophrasti; 15 g a.i./ha) | activity level (growth control rate) Amaranthus retroflexus (Amaranthus retroflexus; 15 g a.i./ha) | activity level (growth control rate) Setaria viridis (Setaria viridis; 15 g a.i./ha) | activity level (growth control rate) Echinochloa crus-galli (Echinochloa crus-galli; 15 g a.i./ha)

CC1(C(=O)OCCF)CC(c2cc(-c3ncc(C(F)(F)F)cc3Cl)c(F)cc2Cl)=NO1 (stereo not drawn) [Compound 44]
10: activity level (growth control rate) Digitaria sanguinalis (Digitaria sanguinalis; 15 g a.i./ha) | activity level (growth control rate) Veronica polita (Veronica polita; 15 g a.i./ha) | activity level (growth control rate) Abutilon theophrasti (Abutilon theophrasti; 15 g a.i./ha) | activity level (growth control rate) Amaranthus retroflexus (Amaranthus retroflexus; 15 g a.i./ha) | activity level (growth control rate) Setaria viridis (Setaria viridis; 15 g a.i./ha) | activity level (growth control rate) Echinochloa crus-galli (Echinochloa crus-galli; 15 g a.i./ha)

CC1(C(=O)OCC(F)(F)F)CC(c2cc(-c3ncc(C(F)(F)F)cc3Cl)c(F)cc2Cl)=NO1 (stereo not drawn) [Compound 45]
10: activity level (growth control rate) Digitaria sanguinalis (Digitaria sanguinalis; 60 g a.i./ha) | activity level (growth control rate) Veronica polita (Veronica polita; 60 g a.i./ha) | activity level (growth control rate) Abutilon theophrasti (Abutilon theophrasti; 60 g a.i./ha) | activity level (growth control rate) Amaranthus retroflexus (Amaranthus retroflexus; 60 g a.i./ha) | activity level (growth control rate) Setaria viridis (Setaria viridis; 60 g a.i./ha) | activity level (growth control rate) Echinochloa crus-galli (Echinochloa crus-galli; 60 g a.i./ha)

COCOC(=O)C1(C)CC(c2cc(-c3ncc(C(F)(F)F)cc3Cl)c(F)cc2Cl)=NO1 (stereo not drawn) [Compound 49]
10: activity level (growth control rate) Digitaria sanguinalis (Digitaria sanguinalis; 15 g a.i./ha) | activity level (growth control rate) Veronica polita (Veronica polita; 15 g a.i./ha) | activity level (growth control rate) Abutilon theophrasti (Abutilon theophrasti; 15 g a.i./ha) | activity level (growth control rate) Amaranthus retroflexus (Amaranthus retroflexus; 15 g a.i./ha) | activity level (growth control rate) Setaria viridis (Setaria viridis; 15 g a.i./ha) | activity level (growth control rate) Echinochloa crus-galli (Echinochloa crus-galli; 15 g a.i./ha)

CSCOC(=O)C1(C)CC(c2cc(-c3ncc(C(F)(F)F)cc3Cl)c(F)cc2Cl)=NO1 (stereo not drawn) [Compound 50]
10: activity level (growth control rate) Digitaria sanguinalis (Digitaria sanguinalis; 15 g a.i./ha) | activity level (growth control rate) Veronica polita (Veronica polita; 15 g a.i./ha) | activity level (growth control rate) Abutilon theophrasti (Abutilon theophrasti; 15 g a.i./ha) | activity level (growth control rate) Amaranthus retroflexus (Amaranthus retroflexus; 15 g a.i./ha) | activity level (growth control rate) Setaria viridis (Setaria viridis; 15 g a.i./ha) | activity level (growth control rate) Echinochloa crus-galli (Echinochloa crus-galli; 15 g a.i./ha)

CC(C#N)OC(=O)C1(C)CC(c2cc(-c3ncc(C(F)(F)F)cc3Cl)c(F)cc2Cl)=NO1 (stereo not drawn) [Compound 51]
10: activity level (growth control rate) Digitaria sanguinalis (Digitaria sanguinalis; 15 g a.i./ha) | activity level (growth control rate) Veronica polita (Veronica polita; 15 g a.i./ha) | activity level (growth control rate) Abutilon theophrasti (Abutilon theophrasti; 15 g a.i./ha) | activity level (growth control rate) Amaranthus retroflexus (Amaranthus retroflexus; 15 g a.i./ha) | activity level (growth control rate) Setaria viridis (Setaria viridis; 15 g a.i./ha) | activity level (growth control rate) Echinochloa crus-galli (Echinochloa crus-galli; 15 g a.i./ha)

CC(C)=NOC(=O)C1(C)CC(c2cc(-c3ncc(C(F)(F)F)cc3Cl)c(F)cc2Cl)=NO1 (stereo not drawn) [Compound 65]
10: activity level (growth control rate) Digitaria sanguinalis (Digitaria sanguinalis; 15 g a.i./ha) | activity level (growth control rate) Veronica polita (Veronica polita; 15 g a.i./ha) | activity level (growth control rate) Abutilon theophrasti (Abutilon theophrasti; 15 g a.i./ha) | activity level (growth control rate) Amaranthus retroflexus (Amaranthus retroflexus; 15 g a.i./ha) | activity level (growth control rate) Setaria viridis (Setaria viridis; 15 g a.i./ha) | activity level (growth control rate) Echinochloa crus-galli (Echinochloa crus-galli; 15 g a.i./ha)

C/C(=N\OC(=O)C1(C)CC(c2cc(-c3ncc(C(F)(F)F)cc3Cl)c(F)cc2Cl)=NO1)C(F)(F)F (stereo not drawn) [Compound 67]
10: activity level (growth control rate) Digitaria sanguinalis (Digitaria sanguinalis; 60 g a.i./ha) | activity level (growth control rate) Veronica polita (Veronica polita; 60 g a.i./ha) | activity level (growth control rate) Abutilon theophrasti (Abutilon theophrasti; 60 g a.i./ha) | activity level (growth control rate) Amaranthus retroflexus (Amaranthus retroflexus; 60 g a.i./ha) | activity level (growth control rate) Setaria viridis (Setaria viridis; 60 g a.i./ha) | activity level (growth control rate) Echinochloa crus-galli (Echinochloa crus-galli; 60 g a.i./ha)

COC/C(C)=N/OC(=O)C1(C)CC(c2cc(-c3ncc(C(F)(F)F)cc3Cl)c(F)cc2Cl)=NO1 (stereo not drawn) [Compound 68]
10: activity level (growth control rate) Digitaria sanguinalis (Digitaria sanguinalis; 60 g a.i./ha) | activity level (growth control rate) Veronica polita (Veronica polita; 60 g a.i./ha) | activity level (growth control rate) Abutilon theophrasti (Abutilon theophrasti; 60 g a.i./ha) | activity level (growth control rate) Amaranthus retroflexus (Amaranthus retroflexus; 60 g a.i./ha) | activity level (growth control rate) Setaria viridis (Setaria viridis; 60 g a.i./ha) | activity level (growth control rate) Echinochloa crus-galli (Echinochloa crus-galli; 60 g a.i./ha)

CCO/C(C)=N/OC(=O)C1(C)CC(c2cc(-c3ncc(C(F)(F)F)cc3Cl)c(F)cc2Cl)=NO1 (stereo not drawn) [Compound 69]
10: activity level (growth control rate) Digitaria sanguinalis (Digitaria sanguinalis; 60 g a.i./ha) | activity level (growth control rate) Veronica polita (Veronica polita; 60 g a.i./ha) | activity level (growth control rate) Abutilon theophrasti (Abutilon theophrasti; 60 g a.i./ha) | activity level (growth control rate) Amaranthus retroflexus (Amaranthus retroflexus; 60 g a.i./ha) | activity level (growth control rate) Setaria viridis (Setaria viridis; 60 g a.i./ha) | activity level (growth control rate) Echinochloa crus-galli (Echinochloa crus-galli; 60 g a.i./ha)

CCOC(=O)/C(C)=N/OC(=O)C1(C)CC(c2cc(-c3ncc(C(F)(F)F)cc3Cl)c(F)cc2Cl)=NO1 (stereo not drawn) [Compound 70]
10: activity level (growth control rate) Digitaria sanguinalis (Digitaria sanguinalis; 60 g a.i./ha) | activity level (growth control rate) Veronica polita (Veronica polita; 60 g a.i./ha) | activity level (growth control rate) Abutilon theophrasti (Abutilon theophrasti; 60 g a.i./ha) | activity level (growth control rate) Amaranthus retroflexus (Amaranthus retroflexus; 60 g a.i./ha) | activity level (growth control rate) Setaria viridis (Setaria viridis; 60 g a.i./ha) | activity level (growth control rate) Echinochloa crus-galli (Echinochloa crus-galli; 60 g a.i./ha)

CC1(C(=O)ON=C(c2ccccc2)c2ccccc2)CC(c2cc(-c3ncc(C(F)(F)F)cc3Cl)c(F)cc2Cl)=NO1 (stereo not drawn) [Compound 71]
10: activity level (growth control rate) Digitaria sanguinalis (Digitaria sanguinalis; 60 g a.i./ha) | activity level (growth control rate) Veronica polita (Veronica polita; 60 g a.i./ha) | activity level (growth control rate) Abutilon theophrasti (Abutilon theophrasti; 60 g a.i./ha) | activity level (growth control rate) Amaranthus retroflexus (Amaranthus retroflexus; 60 g a.i./ha) | activity level (growth control rate) Setaria viridis (Setaria viridis; 60 g a.i./ha) | activity level (growth control rate) Echinochloa crus-galli (Echinochloa crus-galli; 60 g a.i./ha)

CC1(C(=O)O/N=C/c2ccco2)CC(c2cc(-c3ncc(C(F)(F)F)cc3Cl)c(F)cc2Cl)=NO1 (stereo not drawn) [Compound 72]
10: activity level (growth control rate) Digitaria sanguinalis (Digitaria sanguinalis; 60 g a.i./ha) | activity level (growth control rate) Veronica polita (Veronica polita; 60 g a.i./ha) | activity level (growth control rate) Abutilon theophrasti (Abutilon theophrasti; 60 g a.i./ha) | activity level (growth control rate) Amaranthus retroflexus (Amaranthus retroflexus; 60 g a.i./ha) | activity level (growth control rate) Setaria viridis (Setaria viridis; 60 g a.i./ha) | activity level (growth control rate) Echinochloa crus-galli (Echinochloa crus-galli; 60 g a.i./ha)
